In publication PMC6367500, “18β-glycyrrhetyl-3-O-sulfate would be a causative agent of licorice-induced pseudoaldosteronism” (Scientific Reports, 2019):

How the values were obtained:
[1] = Concentrations of GL metabolites in plasma of a patient with pseudoaldosteronism (LC-MS/MS); format: in vivo, human
Source text: The patient was a person who had taken a Kampo formula containing licorice for 3 years (1.5 g of licorice for 1 year and 2 months, and 3 g for 1 year and 10 months). On day 0, we found a low plasma potassium level (2.1 mEq/l) and a high creatinine kinase level (364 U/l). Since low plasma renin activity and a low aldosterone level were also found, the patient was diagnosed with pseudoaldosteronism due to licorice. The administration of the Kampo formula was stopped and potassium supplementation of up to 100 mEq/day was started. In the plasma collected on day 0, we detected compound 3 at 8.6 µM, GA at 1.3 µM, and 2 at 87 nM, while 1, GL and 3MGA were not detected. On day 5, the plasma potassium level was still 2.1 mEq/l and potassium supplementation was continued. However, the plasma concentrations of 3 and GA had decreased to 3.6 µM and 0.65 µM, respectively. 2, 1, GL, and 3MGA were not detected. On day 13, the plasma potassium level was increased to 2.8 mEq/l, and the concentrations of 3 and GA were 61 nM and 11 nM, respectively. On day 14, the plasma potassium level was 3.4 mEq/l, and the concentration of 3 was 57 nM; GA was not detected. On day 18, the plasma potassium level had recovered to a normal level (4.9 mEq/l), so potassium supplementation was stopped.
Female SD rats or EHBRs (9-week-old) were anesthetized by an intraperitoneal (i.p.) injection of urethane (1 g/kg) and their jugular veins were exposed. GA suspended in 0.5% CMC was then administered orally (200 mg/kg) to the unconscious rats, and blood samples were collected from the jugular vein; urine samples were collected using a metabolic cage at an appropriate time over a 12-h period. […] Feces were homogenized in phosphate-buffered saline (PBS; 0.15 M, pH 7.2), centrifuged (1.2 × 10^4 g, 10 min), and the supernatants were collected. After 1 week as a washout period, female SD rats were anesthetized by an i.p. injection of urethane (1 g/kg) and their biliary tract was cannulated. GA (0.2 mg/kg) was injected into the jugular vein, and the bile was collected every hour for 4 h. Aliquots (10 µl) of plasma, urine, homogenate of feces, or bile were mixed with 20 µl of subtilisin (0.91 U/ml) and incubated at 37 °C for 30 min, followed by the addition of 70 µl of astragaloside IV solution (1 µg/ml in ethanol containing 0.5% formic acid, used as internal standard), and kept at −20 °C for 30 min. […] The transitions (precursor to daughter) monitored and retention times were as follows: ESI(+) 743.4 to 567.5 m/z for compound 1 (5.5 min), ESI(−) 565.5 to 96.5 m/z for 2 (6.2 min), ESI(−) 549.5 to 96.5 m/z for 3 (8.1 min), ESI(+) 647.6 to 453.6 m/z for 3MGA (9.2 min), ESI(+) 471.3 to 91.0 m/z for GA (8.8 min), ESI(+) 823.5 to 453.6 m/z for GL (10.8 min), and ESI(+) 785.4 to 143.0 m/z for astragaloside IV (3.0 min). Linear regressions over the concentration range of 32 nM to 20 µM for each compound were examined using the peak-area ratio of the compounds to their internal standards and the least-squares method (r^2 > 0.98).
The patient was a person. They provided written informed consent to the use of their blood and urine samples for this study, which was approved by the Independent Ethics Committee of Kameda General Hospital, in accordance with the Declaration of Helsinki. Their anamnesis was follows: hypertension, systemic lupus erythematosus, and antiphospholipid antibody syndrome (for 15 years), necrotic pulmonary aspergillosis (6 years ago), cerebral infarction (14 and 4 years ago, two times), and stomach cancer (3 years ago). After the operation for stomach cancer, the patient had been treated with Kracie Juzentaihoto Extract Granules for Ethical Use (Kracie Pharmaceuticals., Tokyo, Japan). […]

anti-3MGA-mAb [2] = experiment: Dot-blot analysis using anti-3MGA-mAb; format: binding; conditions: 1 µg spotted on PES membrane, imaging analysis
Description: We confirmed the cross-reactivity of anti-3MGA-mAb against these GL metabolites. GL, GA, 3MGA, and compounds 1, 2, and 3 (1 µg each) were spotted on a polyethersulfone (PES) membrane, fixed onto the membrane, and colored using an anti-3MGA-mAb (Fig. 5A). […] Thus, the anti-3MGA-mAb cross-reacted to some extent with other metabolites of GL.
(§1) Figure 5 Dot-blot analysis and ELISA detection range of GL metabolites using anti-3MGA-monoclonal antibody (mAb). GL metabolites (1 µg each) were spotted on a PES membrane, and colored using an anti-3MGA-mAb (A). Competitive ELISA using anti-3MGA-mAb for GL metabolites was performed. Data are represented from a single analysis (n = 1) (B). […] Data are represented as mean ± S.D. (n = 3). Two-way ANOVA indicated a significant difference between GA and 3 (F1,36 = 4441, P < 0.001), concentrations (F8,36 = 315, P < 0.001), and their interactions (F8,36 = 281, P < 0.001). The calibrated line for the absorbance-concentration profile of 3 was calculated by the linear least-squares method, and the regression formula is shown in graph (C).
Anti-3MGA-mAb and 3MGA-human serum albumin (HSA)-conjugate were developed by the same protocols established in our previous studies[22],[23]. GL, GA, 3MGA, 1, 2, and 3 (1 µg each) were spotted on a Mustang^TM E positively charged PES membrane (Pall Co., East Hills, NY, USA). The membrane was then immersed into 0.1 M MES buffer (pH 4.7) containing 2% EDC and 1% NHS, and kept at room temperature for 1 h to activate the carboxyl group. After washing with distilled water, PBS containing 1% bovine serum albumin (BSA) was added to the membrane, which was shaken at room temperature for 2 h for fixation. Next, the membrane was blocked with PBS containing 5% skim milk (Morinaga-milk, Tokyo, Japan) and 0.1% Tween 20 at 4 °C overnight to reduce nonspecific adsorption. After washing twice with PBS containing 0.1% Tween 20 (T-PBS) for 5 min, the membrane was incubated with anti-3MGA-mAb and kept at room temperature for 3 h with constant agitation. The membrane was then washed twice with T-PBS for 5 min and treated with 1:500 diluted horseradish peroxidase (HRP)-labeled goat anti-mouse IgG (whole molecule; Sigma, St. Louis, MO, USA) antibody in T-PBS for 1 h with gentle shaking. Finally, the membrane was washed twice with T-PBS and once with PBS, and exposed to 1 mg/ml of freshly prepared 4-chloro-1-naphthol-0.03% H2O2 in PBS for 15 min at room temperature. The reaction was stopped by washing with distilled water, and the immunostained PES membrane was allowed to dry and then photographed. The positively stained areas were measured using Image J 1.46r (http://imageJ.nih.gov/ij).

anti-3MGA-mAb [3] = experiment: Competitive ELISA using anti-3MGA-mAb; format: binding; conditions: specificity to 3MGA calibrated to 100%, n = 1
Description: as §1
When the specificity of the mAb to 3MGA was calibrated to 100%, the cross-reactivity for GL, GA, 1, 2, and 3 was 0.23%, 2.2%, 4.8%, 4.0%, and 23%, respectively. […] We confirmed the selectivity of the anti-3MGA-mAb in discriminating between 3 and GA and established the detectable measurement range for 3 in this ELISA system.
3MGA-HSA (1 µg/ml in 50 mM carbonate buffer, pH 9.6) was added into a 96-well plate (Nagel Nunc, Penfield, NY, USA) (100 µl in a well) and incubated at 37 °C for 1 h. After the removal of 3MGA-HSA, the wells were washed three times with T-PBS (200 µl in a well). The wells were incubated with 300 µl in a well of 5% skim milk at 4 °C overnight. After the wells had been washed with T-PBS three times, the sample solution diluted with Can Get Signal® Solution 1 (Toyobo Co., Ltd., Osaka, Japan) (50 µl in a well) and anti-3MGA-mAb (1:4,000 dilution with Can Get Signal® Solution 1) (50 µl in a well) were added to the wells, and the plate was incubated at 37 °C for 1 h. After the wells had been washed with T-PBS three times, HRP-labeled goat anti-mouse IgG (Fc specific) antibody (Sigma, 1:20,000 dilution with Can Get Signal® Solution 2) was added into the wells (100 µl in a well) and the plate was incubated at 37 °C for 1 h. Next, the wells were washed with T-PBS three times and the substrate solution (3,3′,5,5′-tetramethylbensidine, TMB solution; Fujifilm Wako Pure Chemical Corporation, Osaka, Japan) was added to the wells (100 µl in a well), followed by incubation at room temperature for 5 min. Then, the stop solution (0.5 M sulfuric acid) was added to the wells (100 µl in a well) and the optical density was measured at 450 nm/630 nm.

With `CC1(C)[C@@H](O[C@H]2O[C@H](C(=O)O)[C@@H](O)[C@H](O)[C@H]2O[C@@H]2O[C@H](C(=O)O)[C@@H](O)[C@H](O)[C@H]2O)CC[C@]2(C)[C@H]3C(=O)C=C4[C@@H]5C[C@@](C)(C(=O)O)CC[C@]5(C)CC[C@@]4(C)[C@]3(C)CC[C@@H]12` [GL, glycyrrhizin, reference compound] the “plasma concentration, day 0” value ([1]; patient with licorice-induced pseudoaldosteronism, day 0) was “not detected”, the “plasma concentration, day 5” value ([1]; patient, 5 days after stopping the Kampo formula) was “not detected” and the “area of positive staining in dot-blot” value (anti-3MGA-mAb [2]) was “not detectable”. For the same molecule, the “cross-reactivity of anti-3MGA-mAb” value (anti-3MGA-mAb [3]) was 0.23%.
